According to US11643439B2, “Multi-target compound with anticoagulation and antiplatelet activity, preparation method therefor, and use thereof” (SHAANXI MICOT TECHNOLOGY LIMITED COMPANY, priority 2015, dated 2023):
Marks after values point to notes of the source that are not given here.

Columns and labels:
[1] = system: blood coagulation function; experiment: PT in rabbits, intravenous maintenance administration; format: in vivo, rabbit
Procedure: (§1) 2. Grouping and administration: 10 rabbits were randomly divided into 3 groups, 2 to 3 rabbits per group. 1) Sham operation group (NS): Intravenous injection of the same volume of physiological saline, with the same operation method as above; 2) polypeptide 2 administration group: 8.0 mg/kg+20.0 mg/kg/h; 3) positive control enoxaparin group: 50 U/kg+150 U/kg/h. According to the body weight in kilograms of the rabbits, the first dose of the drug to be tested was dissolved in 2 mL of physiological saline for single bolus injection. The maintaining dose was dissolved in 9 ml of physiological saline, and placed in a double-channel micro-injection pump, which was dripped off within 90 minutes at a dripping speed of […]. The sham operation group was administered with the same volume of physiological saline.
(§2) 4.2 Determination of blood coagulation function: Blood samples were taken and the blood function (PT, APTT) was determined at 0 min before administration, at points of 30 min, 60 min, 90 min after administration, and at points of 60 min, 120 min and 180 min after termination of administration, using a platelet-aggregation coagulation factor analyzer. Blood samples were centrifuged at 3510 rpm for 8 min to obtain platelet poor plasma (PPP). Reagent reconstruction and preservation were performed according to the operation requirements of the kit. Immediately after each blood sample was placed into a test cup and then added with PT, TT and APTT reagents, the test was started. After the test was completed, results were recorded.

[2] = system: blood coagulation function; experiment: APTT in rabbits, intravenous maintenance administration; format: in vivo, rabbit
Procedure: as §1, §2

platelet aggregation = experiment: Platelet aggregation in rabbits, intravenous maintenance administration; format: in vivo, rabbit
Procedure: as §1
3.1 Surgery preparation of rabbits: Rabbits were sent to the laboratory for accommodation for one day, and then screened at first. Blood samples were taken from arteries within ears, which were subjected to blood routine analysis and APTT assay, and the rabbits with normal blood hemateikon and APTT between 16s to 28s were selected for experiments. The rabbits to be tested were fasted with free access to water for the night before the experiment. The rabbits were anesthetized with intravenous injection of 3% sodium pentobarbital solution at 1 ml/kg, fixed in the supine position, and then, the common carotid artery at one side, external jugular vein, femoral artery at one side, femoral vein, and forelimb vein at one side were isolated. The forelimb vein was subjected to intubation for administration; the left femoral vein was subjected to intubation for blood collection to determine the platelet aggregation rate; the femoral artery was used for the establishment of an arterial thrombosis model; the common carotid artery and external jugular vein were used for the establishment of an arterial and venous bypass thrombosis model.
4.1 Platelet aggregation rate: At points of 0 min before administration; 30 min. 60 min, 90 min for administration; 60 min, 120 min, 180 min after administration was terminated, 2.7 ml blood samples were taken from the femoral vein, rapidly injected into a centrifuge tube containing 0.3 ml of 3.8% sodium citrate solution, and fully mixed well. The resulted blood samples were centrifuged at 810 rpm (100 g) for 8 min to obtain PRP, and was centrifuged at 3500 rpm (1863 g) for 8 min to obtain PPP which was used to determine platelet aggregation.
Blood samples were taken before administration (0 min), 5 min and 15 min after administration, respectively, to determine the platelet aggregation rate which was used to calculate the inhibitory rate of platelet aggregation with a calculation equation as follows: […]

[3] = system: thrombin-induced pulmonary embolism; experiment: Thrombin-induced pulmonary embolism in mice; format: in vivo, mouse; details: thrombin 1500 u/kg, tail iv 250 IU/kg
[4] = iv 8.0 + 20.0 (mg/kg+mg/kg/h), Administration 30 min
[5] = iv 8.0 + 20.0 (mg/kg+mg/kg/h), Administration 60 min
[6] = iv 8.0 + 20.0 (mg/kg+mg/kg/h), Administration 90 min
[7] = iv 8.0 + 20.0 (mg/kg+mg/kg/h), Before administration
[8] = iv 8.0 + 20.0 (mg/kg+mg/kg/h), Termination 60 min
[9] = iv 8.0 + 20.0 (mg/kg+mg/kg/h), Termination 120 min
[10] = iv 8.0 + 20.0 (mg/kg+mg/kg/h), Termination 180 min
[11] = iv 50 U + 150 U, Administration 30 min
[12] = iv 50 U + 150 U, Administration 60 min
[13] = iv 50 U + 150 U, Administration 90 min
[14] = iv 50 U + 150 U, Before administration
[15] = iv 50 U + 150 U, Termination 60 min
[16] = iv 50 U + 150 U, Termination 120 min
[17] = iv 50 U + 150 U, Termination 180 min

D-Phe Pro Arg Pro Gly Gly Gly Gly Asn Gly Asp Phe Glu Glu Ile Pro Glu Glu Tyr Leu Glu Ala Ala Ala Lys Cys Har Gly Asp Trp Pro Cys [Polypeptide 2]
PT [1, 4]: 12.7 ± 0.5 S
PT [1, 5]: 9.4 ± 2.0 S
PT [1, 6]: 11.6 ± 1.3 S
PT [1, 7]: 7.7 ± 1.8 S
PT [1, 8]: 7.7 ± 0.0 S
PT [1, 9]: 7.1 ± 1.8 S
PT [1, 10]: 7.4 ± 1.3 S
APTT [2, 4]: 38.0 ± 2.3 S
APTT [2, 5]: 32.5 ± 1.0 S
APTT [2, 6]: 34.1 ± 3.7 S
APTT [2, 7]: 22.7 ± 1.7 S
APTT [2, 8]: 35.7 ± 14.0 S
APTT [2, 9]: 33.2 ± 2.7 S
APTT [2, 10]: 23.3 ± 1.6 S
inhibitory rate of platelet aggregation (platelet aggregation; iv 8.0 + 20.0 (mg/kg + mg/kg/h), 60 min after termination): 14.1 ± 3.5%
inhibitory rate of platelet aggregation (platelet aggregation; iv 8.0 + 20.0 (mg/kg + mg/kg/h), 120 min after termination): 7.5 ± 1.8%
inhibitory rate of platelet aggregation (platelet aggregation; iv 8.0 + 20.0 (mg/kg + mg/kg/h), 180 min after termination): 47.5 ± 2.5%
inhibitory rate of platelet aggregation (platelet aggregation; iv 8.0 + 20.0 (mg/kg + mg/kg/h), Administration for 30 min): 61.0 ± 14.1%
inhibitory rate of platelet aggregation (platelet aggregation; iv 8.0 + 20.0 (mg/kg + mg/kg/h), Administration for 60 min): 72.1 ± 9.6%
inhibitory rate of platelet aggregation (platelet aggregation; iv 8.0 + 20.0 (mg/kg + mg/kg/h), Administration for 90 min): 55.8 ± 7.7%

Enoxaparin
PT [1, 11]: 10.4 S
PT [1, 12]: 10.4 S
PT [1, 13]: 11.3 S
PT [1, 14]: 9.4 S
PT [1, 15]: 8.2 S
PT [1, 16]: 8.1 S
PT [1, 17]: 7.6 S
APTT [2, 11]: 32.4 S
APTT [2, 12]: 36.2 S
APTT [2, 13]: 38.3 S
APTT [2, 14]: 25.7 S
APTT [2, 15]: 30.5 S
APTT [2, 16]: 62.1 S
APTT [2, 17]: 41.6 S
Number of platelets [3]: 459.83 ± 49.66 ×10^9
Mortality rate ([3]; within 15 min): 10**^## %
inhibitory rate of platelet aggregation (platelet aggregation; iv 50 U + 150 U, 60 min after termination): 0.00%
inhibitory rate of platelet aggregation (platelet aggregation; iv 50 U + 150 U, 120 min after termination): 41.9%
inhibitory rate of platelet aggregation (platelet aggregation; iv 50 U + 150 U, Administration for 30 min): 26.7%
inhibitory rate of platelet aggregation (platelet aggregation; iv 50 U + 150 U, Administration for 60 min): 0.00%
inhibitory rate of platelet aggregation (platelet aggregation; iv 50 U + 150 U, Administration for 90 min): 35.27%
